The subject of one assay is dog eyes with cataracts. Put plainly: Treatment of cataractous lenses in dogs in vivo. Also noted: key to cataract grade before treatment, treatment group / cataract grade after treatment, treatment group: Grade 0: absence of opacification (no cataract); Grade 1: a slight degree of opacification (incipient stage); Grade 2: presence of diffuse opacification involving almost the entire lens (immature stage); Grade 3: presence of extensive, thick opacification involving the entire lens (mature stage). The protocol:
Preparation of drug-loaded nanoparticles. Lanosterol was loaded into a lipid-polymer hybrid nanoparticle through an adapted nanoprecipitation method^34. In brief, the desired concentration of lanosterol was mixed with polycaprolactone (PCL) polymer dissolved in acetonitrile. Lecithin and 1,2-distearoyl-sn-glycero-3-phosphoethanolamine-N-carboxy(polyethylene glycol) 2000 (DSPE-PEG-COOH) were dissolved in a 4% ethanol aqueous solution at 20% of the PCL polymer weight and heated above 60° C. The lanosterol/PCL solution was then added into the preheated lipid solution under gentle stirring followed by rigorous vortexing for 3 min. The mixture solution was then stirred for 2 h to allow the nanoparticles to form and the acetonitrile to evaporate. Next, the nanoparticle solution was washed three times using an Amicon Ultra-4 centrifugal filter (Millipore) with a molecular weight cut-off of 10 kDa to remove the remaining organic solvent and free molecules. The resulting nanoparticles were then re-suspended in PBS buffer for sub-sequent use. The size, size distribution, and surface zeta potential of the drug-loaded nanoparticles were characterized by dynamic light scattering. The loading yield of lanosterol was quantified by high-performance liquid chromatography.
Treatment of cataractous lenses in dogs. To assess the effect of lanosterol treatment on cataracts in live animals, dogs were pre-medicated with intramuscular injections of acepromaxine and butorphanol. After 20 min, induction of anaesthesia was performed by application of intravenous propofol. Dogs were then immediately intubated and maintained on oxygen and 2% isoflurane at […]. Lanosterol (100 mg)-loaded nanoparticles were initially injected into the vitreous cavity in the test eye using a 28-gauge needle, and then were given every 3 days for the duration of the experiment. Treatment eyes or sham eyes were randomized. […] Degree of cataract severity was assessed by a blinded examiner and scored based on canine cataract stage, shown below^35. Improvements in lens clarity and transparency were quantified. […]

Assay [1] relates to naturally occurring cataractous lenses from rabbits. Kind of assay: Treatment of isolated cataractous rabbit lenses. More on the design: key to cataract grade before treatment / cataract grade after treatment: Grade 0: absence of opacification (gridlines clearly visible); Grade 1: a slight degree of opacification (minimal clouding of gridlines, with gridlines still visible); Grade 2: presence of diffuse opacification involving almost the entire lens (moderate clouding of gridlines, with main gridlines visible); Grade 3: presence of extensive, thick opacification involving the entire lens (total clouding of gridlines, with gridlines not seen at all). An excerpt:
FIG. 12A, FIG. 12B, and FIG. 12C show grading system of cataractous lenses. […] The degree of transparency was scored as 0, a clear lens and absence of opacification (gridlines clearly visible, a′); 1, a blurry lens and a slight degree of opacification (minimal clouding of gridlines, with gridlines still visible, b′); 2, a cloudy lens and presence of diffuse opacification involving almost the entire lens (moderate clouding of gridlines, with main gridlines visible, c′); or 3, an opaque lens and presence of extensive thick opacification involving the entire lens (total clouding of gridlines, with gridlines not seen at all, d′). […] Rabbit lenses (n=13) were dissected and incubated with lanosterol for 6 days and subsequently assessed for lens clarity and transparency. Pairs of photographs of each cataractous rabbit lens showing before and after treatment with scores underneath are shown. […] Dog eyes with cataracts (n=7) were treated with lanosterol for 6 weeks and assessed for lens clarity and transparency. A pair of photographs of each study eye before and after treatment is shown with scores underneath. Three control eyes treated with vehicles alone are also presented.
Treatment of cataractous rabbit lenses. Rabbits were euthanized by CO2 inhalation and lenses were immediately dissected and treated with vehicle or lanosterol dissolved in vehicle to make 25 mM solutions. Lens tissues were incubated in these solutions for 6 days in the dark at room temperature. Cataracts were examined under a microscope and photographed. Degree of cataract was assessed by a blinded examiner using a previously described opacification grading system, shown below^32,33. Improvements in lens clarity and transparency were quantified by visual inspection and grading. Lens clarity was scored by transmission of light, clarity of a grid image underneath the lens (FIG. 12A, FIG. 12B, FIG. 12C), and improvement in overall clarity of a lens or improvement in clarity of localized areas of cortical cataract. Wilcoxon test was used to evaluate the treatment effect.
Cataract grading system. […]

Where “and” joins values, the source holds several entries; their conditions need not be identical. Equal entries are not always repeated. Entries after “also recorded” stand apart in the source; their conditions may differ.

As to `CC(C)=CCC[C@@H](C)[C@H]1CC[C@@]2(C)C3=C(CC[C@]12C)[C@@]1(C)CC[C@H](O)C(C)(C)[C@@H]1CC3` [lanosterol, 3β-Hydroxy-8,24-lanostadiene; 8,24-Lanostadien-3β-ol], the “cataract grade before treatment, treatment group” value with dog eyes with cataracts (dog study eye, baseline, n=7) was 1 and 2 and 3. In addition, the “cataract grade after treatment, treatment group” value in the assay on dog eyes with cataracts (dog study eye, intravitreal lanosterol (100 mg)-loaded nanoparticles every 3 days plus 25 mM lanosterol eye drops three times daily, 6 weeks, n=7) is 0 and 1. For the same compound, the “cataract severity / lens clarity” value with dog eyes with cataracts (dogs in vivo, 6 weeks of lanosterol, P<0.009, Wilcoxon Test) was “significantly reduced cataract severity and increased lens clarity”; in assay [1] (isolated rabbit lenses, 25 mM lanosterol, 6 days, P<0.003, Wilcoxon Test) it was “strong trend of reduction in cataract severity; also recorded: reduced cataract severity and increased clarity”. In addition, in assay [1] (isolated rabbit lens incubated in 25 mM lanosterol solution for 6 days, n=13), the “cataract grade after treatment” value is 1 and 0. For the same compound, the “cataract grade before treatment” value in assay [1] (isolated rabbit lens, baseline of each lanosterol-treated sample, n=13) was 2 and 1 and 3.

The values are drawn from patent publication US10471076B2, “Compositions and methods to treat vision disorders” (YouHealth Biotech, Limited, priority 2014, dated 2019).
